Test results reported in patent publication US5663162A, “Cephem derivatives” (priority 1993, dated 1997).
Values after ≈ are worked out from the molar mass of the structure shown. Like-named read-outs stand apart in the source and are kept apart here.

Tests used:
Test in all cases: Antibacterial activity test, MIC by two-fold dilution method
C. freundii GN346/16 = type: cell-based; conditions: Citrobacter freundii
Protocol: (§1) The measurement was carried out in the following manner: 10^6 CFU/ml of a bacterium to be tested was inoculated on a Medium N for disc susceptibility test (manufactured by Nissui Pharmaceutical Co., Ltd.), and cultivated at 35° C. for 18 to 20 hours.

E. cloacae G-0008 = type: cell-based; conditions: Enterobacter cloacae
Protocol: as §1

E. coli NIHJ JC-2 = type: cell-based; conditions: Escherichia coli
Protocol: as §1

K. pneumoniae PC1602 = type: cell-based; conditions: Klebsiella pneumoniae
Protocol: as §1

M. morganii 1510/S-1 = type: cell-based; conditions: Morganella morganii
Protocol: as §1

P. aeruginosa E-2 = type: cell-based; conditions: Pseudomonas aeruginosa
Protocol: as §1

P. aeruginosa GN10362 = type: cell-based; conditions: Pseudomonas aeruginosa
Protocol: as §1

P. vulgaris GN76 = type: cell-based; conditions: Proteus vulgaris
Protocol: as §1

S. Aureus 209P JC-1 = type: cell-based; conditions: Staphylococcus aureus, read-out: Minimum Inhibition Concentration
Protocol: as §1

S. epidermidis ATCC14990 = type: cell-based; conditions: Staphylococcus epidermidis
Protocol: as §1

S. marcescens No. 1 = type: cell-based; conditions: Serratia marcescens
Protocol: as §1

S. Aureus 126 = type: cell-based, Staphylococcus aureus (methicillin-resistant, MRSA); conditions: Staphylococcus aureus, read-out: Minimum Inhibition Concentration
Protocol: as §1

S. Aureus 133 = type: cell-based, Staphylococcus aureus (methicillin-resistant, MRSA); conditions: Staphylococcus aureus, read-out: Minimum Inhibition Concentration
Protocol: as §1

[1] = C. freundii GN346/16, 10^6 CFU/ml, 35° C., 18 to 20 hours, read-out: Minimum Inhibition Concentration
[2] = G0008, E. cloacae G-0008, 10^6 CFU/ml, 35° C., 18 to 20 hours, read-out: Minimum Inhibition Concentration
[3] = NIHJJC2, E. coli NIHJ JC-2, 10^6 CFU/ml, 35° C., 18 to 20 hours, read-out: Minimum Inhibition Concentration
[4] = K. pneumoniae PC1602, 10^6 CFU/ml, 35° C., 18 to 20 hours, read-out: Minimum Inhibition Concentration
[5] = 1510/S1, M. morganii 1510/S-1, 10^6 CFU/ml, 35° C., 18 to 20 hours, read-out: Minimum Inhibition Concentration
[6] = E2, read-out: Minimum Inhibition Concentration
[7] = GN10362, read-out: Minimum Inhibition Concentration
[8] = P. vulgaris GN76, 10^6 CFU/ml, 35° C., 18 to 20 hours, read-out: Minimum Inhibition Concentration
[9] = S. Aureus 209P JC-1, 10^6 CFU/ml, 35° C., 18 to 20 hours
[10] = S. epidermidis ATCC14990, 10^6 CFU/ml, 35° C., 18 to 20 hours, read-out: Minimum Inhibition Concentration
[11] = S. marcescens No. 1, 10^6 CFU/ml, 35° C., 18 to 20 hours, read-out: Minimum Inhibition Concentration
[12] = S. Aureus 126 (MRSA), 10^6 CFU/ml, 35° C., 18 to 20 hours
[13] = S. Aureus 133 (MRSA), 10^6 CFU/ml, 35° C., 18 to 20 hours
[14] = E2, P. aeruginosa E-2, 10^6 CFU/ml, 35° C., 18 to 20 hours, read-out: Minimum Inhibition Concentration
[15] = P. aeruginosa GN10362, 10^6 CFU/ml, 35° C., 18 to 20 hours, read-out: Minimum Inhibition Concentration
[16] = ATCC14990, read-out: Minimum Inhibition Concentration

Compound	MIC (C. freundii GN346/16; [1]) [µg/mL]	MIC (E. cloacae G-0008; [2]) [µg/mL]	MIC (E. coli NIHJ JC-2; [3]) [µg/mL]	MIC (K. pneumoniae PC1602; [4]) [µg/mL]	MIC (M. morganii 1510/S-1; [5]) [µg/mL]	MIC (P. aeruginosa E-2; [6]) [µg/mL]	MIC (P. aeruginosa GN10362; [7]) [µg/mL]	MIC (P. vulgaris GN76; [8]) [µg/mL]	MIC (S. Aureus 209P JC-1; [9]) [µg/mL]	MIC (S. epidermidis ATCC14990; [10]) [µg/mL]	MIC (S. marcescens No. 1; [11]) [µg/mL]	MIC (S. Aureus 126; [12]) [µg/mL]	MIC (S. Aureus 133; [13]) [µg/mL]	MIC (P. aeruginosa E-2; [14]) [µg/mL]	MIC (P. aeruginosa GN10362; [15]) [µg/mL]	MIC (S. Aureus 133; MRSA) [µg/mL]	MIC (S. Aureus 209P JC-1; 209P) [µg/mL]	MIC (S. epidermidis ATCC14990; [16]) [µg/mL]	other results
CO/N=C(\C(=O)N[C@@H]1C(=O)N2C(C(=O)[O-])=C(C[n+]3cc4scc(C(N)=O)n4c3)CS[C@H]12)c1nsc(N)n1 [Example 44, (6R,7R)-7-[(Z)-2-(5-Amino-1,2,4-thiadiazol-3-yl)-2-methoxyiminoacetamide]-3-(3-carbamoylimidazo[5,1-b]thiazolium-6-yl)methyl-3-cephem-4-carboxylate]	0.1 (≈ 0.177 µM)	0.05 (≈ 0.0887 µM)	≤ 0.025	≤ 0.025	0.05 (≈ 0.0887 µM)	1.56 (≈ 2.77 µM)	1.56 (≈ 2.77 µM)	0.2 (≈ 0.355 µM)	0.78 (≈ 1.38 µM)	0.78 (≈ 1.38 µM)	0.05 (≈ 0.0887 µM)	25 (≈ 44.4 µM)	12.5 (≈ 22.2 µM)						
Nc1nc(/C(=N/OCF)C(=O)N[C@@H]2C(=O)N3C(C(=O)[O-])=C(C[n+]4cc5sccn5c4[C@H](CO)NC=O)CS[C@H]23)ns1 [Example 164, (6R,7R)-7-[(Z)-2-(5-amino-1,2,4-thiadiazol-3-yl)-2-fluoromethoxyiminoacetamido]-3-[5-((R)-1-formylamino-2-hydroxyethyl]imidazo[5,1-b]thiazolium-6-yl)methyl-3-cephem-4-carboxylate]	≤ 0.025	0.05 (≈ 0.0799 µM)	≤ 0.025	≤ 0.025	≤ 0.025			0.2 (≈ 0.32 µM)	0.78 (≈ 1.25 µM)	0.78 (≈ 1.25 µM)	≤ 0.025			0.78 (≈ 1.25 µM)	0.78 (≈ 1.25 µM)	6.25 (≈ 9.99 µM)			MIC (S. Aureus 126; MRSA): 6.25 µg/mL (≈ 9.99 µM)
CC(C)(O/N=C(\C(=O)N[C@@H]1C(=O)N2C(C(=O)[O-])=C(C[n+]3ccccc3)CS[C@H]12)c1csc(N)n1)C(=O)O [CAZ, Ceftazidime, reference compound]						1.56 (≈ 2.85 µM)	1.56 (≈ 2.85 µM)					> 100	100 (≈ 183 µM)				6.25 (≈ 11.4 µM)	6.25 (≈ 11.4 µM)	MIC (C. freundii GN346/16; GN346, read-out: Minimum Inhibition Concentration): 0.39 µg/mL (≈ 0.714 µM); MIC (E. cloacae G-0008; G0008, read-out: Minimum Inhibition Concentration): 0.2 µg/mL (≈ 0.366 µM); MIC (E. coli NIHJ JC-2; NIHJJC2, read-out: Minimum Inhibition Concentration): 0.39 µg/mL (≈ 0.714 µM); MIC (K. pneumoniae PC1602; PC1602, read-out: Minimum Inhibition Concentration): 0.1 µg/mL (≈ 0.183 µM); MIC (M. morganii 1510/S-1; 1510/S1, read-out: Minimum Inhibition Concentration): 0.2 µg/mL (≈ 0.366 µM); MIC (P. vulgaris GN76; GN76, read-out: Minimum Inhibition Concentration): 0.05 µg/mL (≈ 0.0915 µM); MIC (S. marcescens No. 1; NO.1, read-out: Minimum Inhibition Concentration): 0.05 µg/mL (≈ 0.0915 µM)
CO/N=C(\C(=O)N[C@@H]1C(=O)N2C(C(=O)[O-])=C(C[n+]3cccc4c3CCC4)CS[C@H]12)c1csc(N)n1 [CPR, Cefpirome, reference compound]	0.05 (≈ 0.0972 µM)	0.05 (≈ 0.0972 µM)	0.05 (≈ 0.0972 µM)	0.05 (≈ 0.0972 µM)	≤ 0.025			0.2 (≈ 0.389 µM)	0.2 (≈ 0.389 µM)		≤ 0.025	50 (≈ 97.2 µM)		3.13 (≈ 6.08 µM)	3.13 (≈ 6.08 µM)	6.25 (≈ 12.1 µM)		0.39 (≈ 0.758 µM)	
Nc1nc(/C(=N/OCCF)C(=O)N[C@@H]2C(=O)N3C(C(=O)[O-])=C(C[n+]4cc5sccn5c4)CS[C@H]23)ns1 [Example 133, (6R,7R)-7-[(Z)-2-(5-Amino-1,2,4-thiadiazol-3-yl)-2-(2-fluoroethoxyimino)acetamide]3-cephem-4-carboxylate]	0.1 (≈ 0.181 µM)	≤ 0.025	≤ 0.025	≤ 0.025	≤ 0.025			0.2 (≈ 0.362 µM)			≤ 0.025	12.5 (≈ 22.6 µM)		0.78 (≈ 1.41 µM)	0.78 (≈ 1.41 µM)	6.25 (≈ 11.3 µM)	0.39 (≈ 0.706 µM)	0.39 (≈ 0.706 µM)	
